Test results taken from ChEMBL document CHEMBL5257141, “PROTAC: Harnessing Targeted Chimeras for Selective BCL-2 Degradation in Cancer Treatment” (ACS Med Chem Lett, 2023).
pIC50: −log10 of the molar value.

Each compound was assayed against Apoptosis regulator Bcl-2 (Homo sapiens, UniProt P10415) (assay: Inhibition of BCL-2 (unknown origin) using FITC-Ahx-GQVGRQLAIIGDDINR-CONH2 as substrate incubated for 4 hrs by fluorescence polarization competition assay).
Chain of Apoptosis regulator Bcl-2 (P10415 whole entry): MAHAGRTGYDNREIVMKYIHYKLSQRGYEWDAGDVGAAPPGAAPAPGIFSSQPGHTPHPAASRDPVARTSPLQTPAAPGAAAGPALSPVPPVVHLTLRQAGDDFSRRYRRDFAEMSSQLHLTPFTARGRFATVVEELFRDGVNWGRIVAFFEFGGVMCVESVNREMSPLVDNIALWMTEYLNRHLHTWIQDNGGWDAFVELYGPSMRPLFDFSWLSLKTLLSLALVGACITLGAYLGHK

pIC50 | Compound
> 7.70 | COc1cc(C(=O)NCCOCCOCCNc2ccc(S(=O)(=O)NC(=O)c3ccc(N4CCN(CC5=C(c6ccc(Cl)cc6)CC(C)(C)CC5)CC4)cc3Oc3cnc4[nH]ccc4c3)cc2[N+](=O)[O-])ccc1NC(=O)[C@@H]1N[C@@H](CC(C)(C)C)[C@](C#N)(c2ccc(Cl)cc2F)[C@H]1c1cccc(Cl)c1F
> 7.70 | CC1(C)CCC(CN2CCN(c3ccc(C(=O)NS(=O)(=O)c4ccc(NCCNC(=O)COc5cccc6c5C(=O)N(C5CCC(=O)NC5=O)C6=O)c([N+](=O)[O-])c4)c(Oc4cnc5[nH]ccc5c4)c3)CC2)=C(c2ccc(Cl)cc2)C1 (stereo not given)

The remaining lines, values behind:

Compound | pIC50
COc1cc(C(=O)NCCNc2ccc(S(=O)(=O)NC(=O)c3ccc(N4CCN(CC5=C(c6ccc(Cl)cc6)CC(C)(C)CC5)CC4)cc3Oc3cnc4[nH]ccc4c3)cc2[N+](=O)[O-])ccc1NC(=O)[C@@H]1N[C@@H](CC(C)(C)C)[C@](C#N)(c2ccc(Cl)cc2F)[C@H]1c1cccc(Cl)c1F | > 7.70
CC1(C)CCC(CN2CCN(c3ccc(C(=O)NS(=O)(=O)c4ccc(NCCOCCOCCNC(=O)CCNC(=O)COc5cccc6c5C(=O)N(C5CCC(=O)NC5=O)C6=O)c([N+](=O)[O-])c4)c(Oc4cnc5[nH]ccc5c4)c3)CC2)=C(c2ccc(Cl)cc2)C1 (stereo not given) | > 7.70
CC1(C)CCC(CN2CCN(c3ccc(C(=O)NS(=O)(=O)c4ccc(NCCOCCOCCNC(=O)COc5cccc6c5C(=O)N(C5CCC(=O)NC5=O)C6=O)c([N+](=O)[O-])c4)c(Oc4cnc5[nH]ccc5c4)c3)CC2)=C(c2ccc(Cl)cc2)C1 (stereo not given) | > 7.70
